According to ChEMBL document CHEMBL1139156, “Novel naphthyridines are histamine H3 antagonists and serotonin reuptake transporter inhibitors” (Bioorg Med Chem Lett, 2007):

Experiments:
Histamine H3 receptor [1] = target: T1, Histamine H3 receptor (Homo sapiens, UniProt Q9Y5N1); test: Antagonist activity at human histamine H3 receptor expressed in SK-N-MC cells assessed as effect on cAMP accumulation; assay type: functional, cell-based; conditions: read-out: pA2 (converted)
[2] = target: Sodium-dependent serotonin transporter (Rattus norvegicus, UniProt P31652); test: Binding affinity to rat SERT
Sodium-dependent serotonin transporter (Rattus norvegicus, UniProt P31652), sequence (P31652 whole entry): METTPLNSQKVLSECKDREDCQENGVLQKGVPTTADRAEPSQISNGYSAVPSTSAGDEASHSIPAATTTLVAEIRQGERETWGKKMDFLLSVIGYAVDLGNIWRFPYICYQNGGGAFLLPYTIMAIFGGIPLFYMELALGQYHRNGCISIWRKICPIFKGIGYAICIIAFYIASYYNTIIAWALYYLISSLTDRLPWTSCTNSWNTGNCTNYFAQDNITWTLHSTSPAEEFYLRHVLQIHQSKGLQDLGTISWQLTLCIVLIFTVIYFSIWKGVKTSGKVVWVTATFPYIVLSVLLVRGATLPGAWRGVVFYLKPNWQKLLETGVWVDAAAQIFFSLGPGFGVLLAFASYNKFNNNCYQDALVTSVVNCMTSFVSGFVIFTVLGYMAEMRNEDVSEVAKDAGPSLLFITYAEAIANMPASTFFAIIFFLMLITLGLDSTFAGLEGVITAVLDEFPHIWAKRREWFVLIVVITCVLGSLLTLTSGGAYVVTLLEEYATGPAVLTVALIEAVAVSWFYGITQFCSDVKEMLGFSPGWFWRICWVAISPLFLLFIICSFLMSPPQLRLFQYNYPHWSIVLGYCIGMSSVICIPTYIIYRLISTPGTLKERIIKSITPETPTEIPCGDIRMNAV

[3] = target: Sodium-dependent serotonin transporter (Homo sapiens, UniProt P31645); test: Binding affinity to human SERT
Sodium-dependent serotonin transporter (Homo sapiens, UniProt P31645), sequence (P31645 whole entry): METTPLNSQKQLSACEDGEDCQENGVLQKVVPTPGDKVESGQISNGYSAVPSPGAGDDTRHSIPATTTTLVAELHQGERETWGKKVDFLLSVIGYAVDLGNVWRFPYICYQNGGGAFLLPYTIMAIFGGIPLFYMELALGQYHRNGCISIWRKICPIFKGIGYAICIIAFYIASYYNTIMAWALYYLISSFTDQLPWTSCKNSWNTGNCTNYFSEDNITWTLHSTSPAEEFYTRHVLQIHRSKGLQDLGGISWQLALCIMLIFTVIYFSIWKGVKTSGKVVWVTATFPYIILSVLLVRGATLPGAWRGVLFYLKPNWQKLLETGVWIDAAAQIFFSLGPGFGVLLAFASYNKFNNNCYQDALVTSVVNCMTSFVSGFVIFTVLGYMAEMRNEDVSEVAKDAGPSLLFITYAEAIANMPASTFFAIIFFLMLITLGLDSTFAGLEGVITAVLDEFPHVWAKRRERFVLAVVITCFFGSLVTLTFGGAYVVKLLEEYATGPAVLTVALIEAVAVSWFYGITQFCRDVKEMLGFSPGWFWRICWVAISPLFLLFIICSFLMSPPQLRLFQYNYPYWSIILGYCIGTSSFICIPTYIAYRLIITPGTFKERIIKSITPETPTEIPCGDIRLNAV

Histamine H3 receptor [4] = target: T1, Histamine H3 receptor; test: Displacement of N-[3H]alpha-methylhistamine from human histamine H3 receptor expressed in SK-N-MC cells; assay type: cell-based
[5] = Cmax in rat plasma at 10 mg/kg, po after 1 hr; assay type: ADME, organism-based; parameters: dose 10 mg/kg, route oral
[6] = Cmax in rat brain at 10 mg/kg, po after 6 hrs; assay type: ADME, organism-based; parameters: dose 10 mg/kg, route oral
[7] = Drug level in rat brain at 10 mg/kg, po after 24 hrs; assay type: ADME, organism-based; parameters: dose 10 mg/kg, route oral; conditions: read-out: Drug uptake

T1 sequence (Q9Y5N1 whole entry): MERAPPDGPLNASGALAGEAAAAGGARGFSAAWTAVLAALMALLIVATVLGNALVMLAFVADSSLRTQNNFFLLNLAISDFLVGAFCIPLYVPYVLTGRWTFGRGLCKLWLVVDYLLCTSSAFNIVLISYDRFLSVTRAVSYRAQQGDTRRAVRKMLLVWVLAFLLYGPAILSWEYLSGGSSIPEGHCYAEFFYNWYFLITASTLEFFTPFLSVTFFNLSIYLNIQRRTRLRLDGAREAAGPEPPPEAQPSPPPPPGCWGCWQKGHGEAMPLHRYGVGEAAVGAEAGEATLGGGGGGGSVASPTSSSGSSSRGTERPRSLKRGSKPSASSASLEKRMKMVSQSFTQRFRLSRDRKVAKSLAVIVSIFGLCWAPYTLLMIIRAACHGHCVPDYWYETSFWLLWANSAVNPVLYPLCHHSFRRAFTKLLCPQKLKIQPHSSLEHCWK

SMILES	Kb (Histamine H3 receptor [1]) [nM]	further results
CN1Cc2cc(OCCCN3CCCCC3)ncc2C(c2ccc(Cl)c(Cl)c2)C1 (centres undefined)	18.2	–
CCN(CC)CCCOc1cc2c(cn1)C(c1ccccc1)CN(C)C2 (centres undefined)	0.661	–
CN1Cc2cc(OCCCN3CCCCC3)ncc2C(c2ccc(Cl)c(F)c2)C1 (centres undefined)	16.6	Ki [2]: 26 nM; Ki [3]: 147 nM; Ki (Histamine H3 receptor [4]): 7 nM
CN1Cc2cc(OCCCN3CCCCC3)ncc2C(c2cccc(Cl)c2)C1 (centres undefined)	9.77	–
c1ccc(C2CNCc3cc(OCCCN4CCOCC4)ncc32)cc1 (centres undefined)	–	Ki [3]: 4770 nM; Ki (Histamine H3 receptor [4]): 13 nM; Cmax [5]: 220 nM; Cmax [6]: 5560 nM; concentration at 24 h [7]: > 600 nM
Clc1ccccc1C1CNCc2cc(OCCCN3CCCCC3)ncc21 (centres undefined)	1.05	–
CN1Cc2cc(OCCCN3CCCCC3)ncc2C(c2ccccc2)C1 (centres undefined)	21.4	–
COc1ccc(C2CNCc3cc(OCCCN4CCCCC4)ncc32)cc1 (centres undefined)	5.89	Ki [2]: 46 nM
CN1Cc2cc(OCCCN3CCCCC3)ncc2C(c2ccc(F)cc2)C1 (centres undefined)	3.55	–
c1ccc(C2CNCc3cc(OCCCN4CCCCC4)ncc32)cc1 (centres undefined)	0.724	–
CN1Cc2cc(OCCCN3CCCCC3)ncc2C(c2ccccc2F)C1 (centres undefined)	1.05	–
COc1ccc(C2CN(C)Cc3cc(OCCCN4CCOCC4)ncc32)cc1 (centres undefined)	11.7	–
Clc1ccc(C2CNCc3cc(OCCCN4CCCCC4)ncc32)cc1 (centres undefined)	3.89	–
CC(C)N1CCC(COc2cc3c(cn2)C(c2ccc(Cl)c(Cl)c2)CNC3)CC1 (centres undefined)	–	Ki [2]: 18 nM; Ki [3]: 37 nM; Ki (Histamine H3 receptor [4]): 13 nM
CCN(CC)CCCOc1cc2c(cn1)C(c1ccc(Cl)c(Cl)c1)CNC2 (centres undefined)	14.1	–
COc1ccc(C2CNCc3cc(OCC4CCN(C(C)C)CC4)ncc32)cc1 (centres undefined)	3.55	–
COc1cccc(C2CN(C)Cc3cc(OCCCN4CCCCC4)ncc32)c1 (centres undefined)	25.7	–
Clc1ccc(C2CNCc3cc(OCCCN4CCCCC4)ncc32)cc1Cl (centres undefined)	11.2	Ki [3]: 32 nM
